In patent US6767911B2, “Fungicidal active compound combinations” (priority 1994, dated 2004):

Columns and labels:
Botrytis cinerea = assay: Botrytis test (beans)/protective; assay type: in vivo; conditions: protective, 3 days after inoculation
Protocol: Botrytis Test (Beans)/Protective
To produce a suitable preparation of active compound, either commercially available formulations of active compound (individual active compound or active compound combinations) or one part by weight of active compound is mixed with 4.7 parts by weight of solvent (acetone) and 0.3 parts by weight of emulsifier (alkyl-aryl polyglycol ether), and the mixture is diluted with water to the desired concentration.
To test for protective activity, young plants are sprayed with the preparation of active compound until dripping wet. After the spray coating has dried on, 2 small pieces of agar covered with Botrytis cinerea are placed on each leaf. The inoculated plants are placed in a darkened humid chamber at 20° C. 3 days after the inoculation, the size of the infected spots on the leaves is evaluated.
Active compounds, active compound concentrations and test results can be seen from the tables which follow.

Penicillium custosum = assay: Agar plate test with Penicillium custosum; assay type: cell-based; conditions: 100 ppm, inhibition of growth after 6 days
Protocol: Agar Plate Test With Penicillium custosum
39 parts by weight of potato dextrose agar
20 parts by weight of agar
are dissolved in 1,000 ml of distilled water and the solution is kept in an autoclave at 121° C. for 20 minutes.
50 parts by weight of acetone
950 parts by weight of water
Ratio of the amount of solvent to nutrient medium: 1:100
To produce a suitable preparation of active compound, 1 part by weight of active compound is mixed with the stated amount of solvent.
The concentrate is thoroughly mixed, in the stated ratio, with the liquid nutrient medium, and the mixture is poured into Petri dishes.
When the nutrient medium has cooled and solidified, the plates are inoculated with the following microorganisms and are incubated at about 21° C.: Penicillium custosum.
Evaluation is carried out after 6 days, the inhibition of growth being used as a measure of the action of the products.

[1] = system: Erysiphe graminis f.sp. hordei; assay: Erysiphe test (barley)/protective; assay type: in vivo; conditions: protective, 125 g/ha, 7 days after inoculation
Protocol: Erysiphe Test (Barley)/Protective
(§1) To produce a suitable preparation of active compound, commercially available formulations of active compound are diluted with water to the desired concentration.
(§2) To test for protective activity, young plants are sprayed with the preparation of active compound at the application rate shown.
After the spray coating has dried on, the plants are dusted with spores of Erysiphe graminis f.sp. hordei.
(§3) The plants are placed in a greenhouse at a temperature of about 20° C. and a relative atmospheric humidity of about 80%, in order to promote the development of mildew pustules.
(§4) Evaluation is carried out 7 days after the inoculation.

[2] = system: Erysiphe graminis f.sp. tritici; assay: Erysiphe test (wheat)/protective; assay type: in vivo; conditions: protective, 125 g/ha, 7 days after inoculation
Protocol: Erysiphe Test (Wheat)/Protective
as §1, §2
After the spray coating has dried on, the plants are dusted with spores of Erysiphe graminis f.sp. tritici.
as §3
Evaluation is carried out 7 days' after the inoculation.

Leptosphaeria nodorum = Leptosphaeria nodorum test (wheat)/protective; assay type: in vivo; conditions: protective, 125 g/ha, 10 days after inoculation
Protocol: Leptosphaeria nodorum Test (Wheat)/Protective
as §1, §2
After the spray coating has dried on, the plants are sprayed with a spore suspension of Leptosphaeria nodorum. The plants remain for 48 hours in an incubation cabin at 20° C. and 100% relative atmospheric humidity.
The plants are placed in a greenhouse at a temperature of about 15° C. and a relative atmospheric humidity of about 80%.
Evaluation is effected 10 days after the inoculation.

[3] = system: Erysiphe graminis f.sp. hordei; assay: Erysiphe test (barley)/curative; assay type: in vivo; conditions: curative, 7 days after inoculation
Protocol: Erysiphe Test (Barley)/Curative
as §1
To test for curative activity, young plants are dusted with spores of Erysiphe graminis f.sp. hordei. 48 hours after the inoculation, the plants are sprayed with the preparation of active compound at the application rate shown.
as §3, §4
The expected degree of effectiveness in % of the untreated control was calculated using the equation [formula]
in which x and y denote, respectively, the degree of effectiveness—expressed in % of the untreated control—obtained by the two preparations when used separately. If the actually observed degree of effectiveness of the active compound combination exceeds the value calculated for the expected degree of effectiveness (E) using the abovementioned formula, then there is a superadditive, i.e. synergistic, effect.

Fusarium nivale = Fusarium nivale test (wheat)/seed treatment; assay type: in vivo; conditions: approx. 3 weeks after sowing
Protocol: Fusarium nivale Test (Wheat)/Seed Treatment
(§5) The active compounds are used as a powder for dry seed treatment. They are prepared by extending the active compound in question with rock meal to give a finely pulverulent mixture which guarantees uniform distribution on the seed surface.
(§6) To carry out the seed treatment, the infected seed and the seed-dressing product are shaken for 3 minutes in a sealed glass flask.
2×100 wheat kernels are sown in standard soil at a depth of 1 cm and grown in the greenhouse at a temperature of approximately 10° C. and a relative atmospheric humidity of approximately 95% in seed boxes which are exposed to the light for 15 hours per day.
Approximately 3 weeks after sowing, the plants are evaluated for snow blight symptoms.

Drechslera graminea = Drechslera graminea test (barley)/seed treatment (syn. Helminthosporium gramineum); assay type: in vivo; conditions: approx. 3 weeks after sowing
Protocol: Drechslera graminea Test (Barley)/Seed Treatment (syn. Helminthosporium gramineum)
as §5, §6
The seed, embedded in screened, moist standard soil in sealed Petri dishes, is exposed to a temperature of 4° C. for 10 days in a refrigerator. This triggers germination of the barley and, if appropriate, of the fungal spores. 2×50 pregerminated barley kernels are subsequently sown in standard soil at a depth of 3 cm and grown in a greenhouse at a temperature of approximately 18° in seed boxes which are exposed to the light for 15 hours per day.
Approximately 3 weeks after sowing, the plants are evaluated for symptoms of barley leaf stripe.

CC1(C(=O)Nc2ccc(O)c(Cl)c2Cl)CCCCC1 [(I)]
Degree of effectiveness in % of the untreated control (Botrytis cinerea; 5 ppm): 29% | Degree of effectiveness in % of the untreated control (Penicillium custosum): 24% | Degree of effectiveness in % of the untreated control [1]: 18% | Degree of effectiveness in % of the untreated control [2]: 25% | Degree of effectiveness in % of the untreated control (Leptosphaeria nodorum): 57% | Degree of effectiveness in % of the untreated control ([3]; 20 g/ha): 25% | Degree of effectiveness in % of the untreated control (Fusarium nivale; 25 mg/kg of seed): 0% | Degree of effectiveness in % of the untreated control (Fusarium nivale; 100 mg/kg of seed): 22% | Degree of effectiveness in % of the untreated control (Drechslera graminea; 50 mg/kg of seed): 41% | Degree of effectiveness in % of the untreated control (Drechslera graminea; 100 mg/kg of seed): 43%

CCCN(CC)CC1COC2(CCC(C(C)(C)C)CC2)O1 (stereo not drawn) [(L), 8-(,1,1-dimethylethyl)-N-ethyl-N-propyl-1,4-dioxaspiro[4,5]decane-2-methaneamine]
Degree of effectiveness in % of the untreated control (Botrytis cinerea; 200 ppm): 0% | Degree of effectiveness in % of the untreated control ([3]; 10 g/ha): 66%

CNC(=O)/C(=N/OC)c1ccccc1Oc1ccccc1 [(M), (E)-α-(methoxyimino)-N-methyl-2-phenoxy-benzacetamide]
Degree of effectiveness in % of the untreated control (Botrytis cinerea; 25 ppm): 28%

CNC(=O)/C(=N/OC)c1ccccc1COc1cc(C)ccc1C [(N), (E)-α-(methoxyimono)-N-methyl-2-(2,5-dimethyl-phenoxy-methyl)-benzacetamide]
Degree of effectiveness in % of the untreated control (Botrytis cinerea; 12.5 ppm): 64%

Cc1ccc(C(C)NC(=O)C(NC(=O)OC(C)C)C(C)C)cc1 (stereo not drawn) [(O), 1-methylethyl [2-methyl-1-[[[1-(4-methylphenyl)ethyl]amino]carbonyl]propyl]-carbamate]
Degree of effectiveness in % of the untreated control (Botrytis cinerea; 200 ppm): 19%

Cc1cc(C2CC2)nc(Nc2ccccc2)n1 [Ciprodinyl, cyprodinyl]
Degree of effectiveness in % of the untreated control (Botrytis cinerea; 5 ppm): 5%

Fc1ccc(C2(Cn3cncn3)OC2c2ccccc2Cl)cc1 (stereo not drawn) [Epoxiconazole, epoxiconazole]
Degree of effectiveness in % of the untreated control (Leptosphaeria nodorum): 57%

CCCCc1c(C)nc(NCC)nc1O [Ethirimol, ethirimol]
Degree of effectiveness in % of the untreated control (Drechslera graminea; 100 mg/kg of seed): 8%

N#Cc1c[nH]cc1-c1cccc(Cl)c1Cl [Fenpiclonil, fenpiclonil]
Degree of effectiveness in % of the untreated control (Fusarium nivale; 25 mg/kg of seed): 6% | Degree of effectiveness in % of the untreated control (Drechslera graminea; 50 mg/kg of seed): 41%

CC(Cc1ccc(C(C)(C)C)cc1)CN1CCCCC1 (stereo not drawn) [Fenpropidin, fenpropidin]
Degree of effectiveness in % of the untreated control (Botrytis cinerea; 50 ppm): 0%

N#Cc1c[nH]cc1-c1cccc2c1OC(F)(F)O2 [Fludioxonil]
Degree of effectiveness in % of the untreated control (Botrytis cinerea; 1 ppm): 5%

O=c1c2cc(F)ccc2nc(-n2cncn2)n1-c1ccc(Cl)cc1Cl [Fluquinconazole, fluquinconazole]
Degree of effectiveness in % of the untreated control (Botrytis cinerea; 25 ppm): 29%

CC(=O)O.CC(=O)O.CC(=O)O.NC(N)=NCCCCCCCCNCCCCCCCCN=C(N)N [Iminoctadine triacetate]
Degree of effectiveness in % of the untreated control [1]: 27%

Cc1ccc2nc3sc(=O)sc3nc2c1 [Quinomethionate, quinomethionate]
Degree of effectiveness in % of the untreated control (Botrytis cinerea; 50 ppm): 0% | Degree of effectiveness in % of the untreated control [2]: 9%

O=S([O-])CO.[Na+] [Sodium hydroxymethyl sulphinate]
Degree of effectiveness in % of the untreated control (Botrytis cinerea; 200 ppm): 32%
